Patent publication US20210137935A1, “CORTICOTROPIN RELEASING FACTOR RECEPTOR ANTAGONISTS” (Spruce Biosciences, Inc., priority 2017, published 2021)
In brackets after ≈: the same amount, converted by molar mass.

Experiments:
[1] = Study 2 Part A: multiple-dose (14 days) pharmacokinetics in healthy adult volunteers; assay type: in vivo, human; details: for Cmax: fed; for Effective t1/2: half-life calculated by accumulation ratio; for Tmax: median; for WT-norm Claa/F: weight normalized
Protocol: (§1) The 2-part multiple-dose study, Study 2, determined the safety and tolerability of repeated daily doses of Compound 1 and investigated the effects on biomarkers of relevance for the treatment of alcohol dependence.
PK were also evaluated in the multiple-dose, dose-escalation study, Study 2. In Part A of the study, subjects were divided into 3 cohorts and received 50, 150, or 200 mg Compound 1 or placebo for 14 consecutive days (at least 6 subjects received Compound 1 and 2 subjects received placebo in each cohort). […] All dosing occurred in the fed state. An assessment of diurnal cortisol levels, plus when under conditions of glucose clamp, were also carried out both prior to and during the dosing period.
Consistent with the single-dose study (Study 1), concentrations appeared to decline in a bi-exponential manner, characterized by a rapid decrease within the first 24 hours. […] The Tmax appeared to be consistent across doses. Overall half-lives, weight normalized CL/F and V/F were consistent for 150 and 200 mg. However, the values for these latter 2 parameters were almost doubled at the 50-mg dose level. Variability (CV %) for apparent clearance and volume of distribution were large and not reduced with weight-normalization.
Table 8 presents the results of the dose proportionality assessment for the AUC0-24 and Cmax over the tested dose range.

[2] = Phase 1 safety and tolerability (Study 1 and Study 2); assay type: in vivo, human; details: healthy subjects
From the text: Study 1 was the first-in-human study that investigated the safety, tolerability, and PK of single-escalating doses of Compound 1, given orally, to healthy adult subjects. […] The data from this study were used for the selection of doses for Study 2.
as §1
The safety of Compound 1 was evaluated in 2 Phase 1 studies in healthy adult volunteers (Study 1 and Study 2). In both studies, adverse events (AEs), clinical laboratory tests, vital signs (supine blood pressure and pulse rate), and electrocardiograms (ECGs) were evaluated. Overall, in Study 1, Compound 1 was well-tolerated.

ACTH = test: Phase 2 study in adults with classic CAH: ACTH; assay type: in vivo, human; details: patients with classic CAH
From the text: (§2) Cohort A of the Phase 2 Study includes a 6-week, multiple-dose, dose escalation study of Compound 1 for the treatment of adults with classic CAH. After screening, eligible patients will be enrolled into a 6-week treatment period followed by a 4-week washout/safety follow-up period.
(§3) This cohort will be conducted in approximately 9 patients, who will receive Compound 1 daily for up to 6 weeks. Compound 1 will be administered as an oral daily dose. Patients will undergo titration of Compound 1 through three escalating dosage strengths at 2-week intervals. Patients will have overnight PK/PD assessments performed at baseline, which include an pre-dose overnight assessment and a post-dose overnight assessment for PK/PD following administration of the first dose. At the end of each 2-week dosing period, patients will return for single overnight visits for steady-state PK/PD assessments. A follow-up outpatient visit will occur 30 days after their last dose. Upon completion of the initial cohort (Cohort A), the study will proceed to a multiple ascending dose (MAD) design with up to 3 sequential cohorts (Cohorts B, C, and D) to further evaluate the safety, PK, and PD of various SPR001 dosing regimens and to identify an optimal dose regimen. Each cohort will undergo a 2-week run-in period, a 2-week treatment period, and a 30-day washout and safety follow-up period. During the run-in period, which will occur during screening, subjects will document in a paper diary each dose of glucocorticoid medication taken, the time of each meal, and the time they went to bed and woke up each day, to ensure compliance with background glucocorticoid regimens and the stability of their daily routine.
(§4) • 3. To explore the dose(s) of Compound 1 that cause pharmacodynamics changes in plasma concentrations of ACTH, androstenedione, and testosterone, as measured by the absolute and percent change from baseline by dose. • 4. To determine pharmacokinetics of Compound 1 in subjects with CAH. • 5. To explore potential relationships between pharmacodynamics and pharmacokinetics. […]

17-OHP = test: Phase 2 study in adults with classic CAH: 17-OHP; assay type: in vivo, human; details: patients with classic CAH
From the text: as §2, §3
• 1. To evaluate the safety of Compound 1 in subjects with CAH. • 2. To assess the efficacy of Compound 1 in subjects with classic CAH as measured by percent and absolute change in 17-OHP compared to baseline.
This allows for steroid taper. […] 50% of subjects were within the guideline range (1200 ng/dL) after treatment.

Androstenedione = test: Phase 2 study in adults with classic CAH: Androstenedione; assay type: in vivo, human; details: patients with classic CAH
From the text: as §2, §3, §4

[3] = Phase 2 study in adults with classic CAH: safety; assay type: in vivo, human; details: patients with CAH, 5-fold range of doses
From the text: as §2
as §3, with “Each cohort will undergo a 2-week run-in period, a 2-week treatment period, and a 30-day washout and safety follow-up period. During the run-in period, which will occur during screening, subjects will document in a paper diary each dose of glucocorticoid medication taken, the time of each meal, and the time they went to bed and woke up each day, to ensure compliance with background glucocorticoid regimens and the stability of their daily routine.” left out
• 1. […] To assess the efficacy of Compound 1 in subjects with classic CAH as measured by percent and absolute change in 17-OHP compared to baseline. […]

[4] = Solubility in different aqueous media (24 hour at room temperature); assay type: physicochemical
[5] = 50 mg daily, Day 14, geometric mean
[6] = 150 mg daily, Day 14, geometric mean
[7] = 200 mg daily, Day 14, geometric mean

CCC(CC)c1cc(C)nc2c(-c3sc(N4CCOCC4)nc3Cl)c(C)nn12 [Compound 1, 3-(4-Chloro-2-(morpholin-4-yl)thiazol-5-yl)-7-(1-ethylpropyl)-2,5-dimethylpyrazolo(1,5-a)pyrimidine]
Cmax [1, 5]: 50.3 ng/mL
AUC0-24 h [1, 5]: 273 ng·h/mL
AUC0-∞ [1, 5]: 980 ng·h/mL
CLaa/F [1, 5]: 183 L/h
Cavg [1, 5]: 11.4 ng/mL
Effective t1/2 [1, 5]: 37.7 h
Tmax ([1]; 50 mg daily, Day 14): 5.00 h
WT-norm Claa/F [1, 5]: 48 mL/min/kg
RA (accumulation ratio, Day 14 AUC0-24/Day 1 AUC0-24) ([1]; 50 mg daily, geometric mean): 2.80
Cmax ([1]; 50 mg, Day 1, geometric mean): 22.7 ng/mL
AUC0-24 h ([1]; 50 mg, Day 1, geometric mean): 97.6 ng·h/mL
Tmax ([1]; 50 mg, Day 1): 4.52 h
Cmax [1, 6]: 222 ng/mL
AUC0-24 h [1, 6]: 1480 ng·h/mL
AUC0-∞ [1, 6]: 4680 ng·h/mL
CLaa/F [1, 6]: 101 L/h
Cavg [1, 6]: 61.7 ng/mL
Effective t1/2 [1, 6]: 32.7 h
Tmax ([1]; 150 mg daily, Day 14): 5.00 h
WT-norm Claa/F [1, 6]: 23.7 mL/min/kg
RA (accumulation ratio, Day 14 AUC0-24/Day 1 AUC0-24) ([1]; 150 mg daily, geometric mean): 2.51
Cmax ([1]; 150 mg, Day 1, geometric mean): 127 ng/mL
AUC0-24 h ([1]; 150 mg, Day 1, geometric mean): 590 ng·h/mL
Tmax ([1]; 150 mg, Day 1): 5.00 h
Cmax [1, 7]: 314 ng/mL
AUC0-24 h [1, 7]: 2040 ng·h/mL
AUC0-∞ [1, 7]: 5660 ng·h/mL
CLaa/F [1, 7]: 98 L/h
Cavg [1, 7]: 85.0 ng/mL
Effective t1/2 [1, 7]: 52.0 h
Tmax ([1]; 200 mg daily, Day 14): 5.00 h
WT-norm Claa/F [1, 7]: 25 mL/min/kg
RA (accumulation ratio, Day 14 AUC0-24/Day 1 AUC0-24) ([1]; 200 mg daily, geometric mean): 3.65
Cmax ([1]; 200 mg, Day 1, geometric mean): 143 ng/mL
AUC0-24 h ([1]; 200 mg, Day 1, geometric mean): 559 ng·h/mL
Tmax ([1]; 200 mg, Day 1): 5.00 h
Vd/F at 14 days ([1]; human, plasma, oral, 50 mg daily, Day 14, geometric mean, read-out: Vz/F): 33500 L
tolerability ([2]; Study 1, single oral doses up to 800 mg): well-tolerated
tolerability ([2]; Study 2, multiple doses up to 200 mg): generally well tolerated
subjects in the normal range (ACTH) after treatment (ACTH): 40%
subjects with more than 25% reduction in ACTH (ACTH): 70%
subjects with reduction in ACTH (ACTH): 80%
subjects with more than 25% reduction in 17-OHP (17-OHP): 50%
subjects with reduction in 17-OHP (17-OHP): 80%
subjects within the guideline range (1200 ng/dL) of 17-OHP after treatment (17-OHP): 50%
subjects with more than 25% reduction in Androstenedione (Androstenedione): 60%
subjects within normal reference range (Androstenedione) after treatment (Androstenedione): 50%
subjects with reduction in Androstenedione (Androstenedione; at various doses): 100%
tolerability [3]: generally well-tolerated
Solubility Description ([4]; 0.001N HCl, equilibrium pH 3.36): Insoluble
Solubility Description ([4]; 0.01N HCl, equilibrium pH 2.06): Insoluble
Solubility Description ([4]; 0.1N HCl, equilibrium pH 1.06): insoluble
Solubility Description ([4]; 0.1N NaOH, equilibrium pH 11.65): Insoluble
Solubility Description ([4]; FaSSIF, equilibrium pH 5.16): insoluble
Solubility Description ([4]; FaSSIF, equilibrium pH 6.73): Insoluble
Solubility Description ([4]; SGF, equilibrium pH 2.25): Insoluble
Solubility Description ([4]; Water, equilibrium pH 7.78): insoluble
Solubility Description ([4]; pH 4.5 Acetate (USP), equilibrium pH 4.65): Insoluble
Solubility Description ([4]; pH 6.0 Phosphate (USP), equilibrium pH 6.08): Insoluble
Solubility Description ([4]; pH 7.5 Phosphate (USP), equilibrium pH 7.57): Insoluble
Solubility ([4]; pH 7.5 Phosphate (USP), equilibrium pH 7.57, n = 2, 24 hour, room temperature): 0.6 µg/mL (≈ 1.43 µM)
solubility at 24 h ([4]; water, thermodynamic from solid): < 2 µg/mL
